Structures can show the parent of a compound that is named as a salt.
These compounds were tested against T1, methionine aminopeptidase-2 (MetAP2) (Homo sapiens, UniProt P50579) (assay: Inhibition of MetAP2 enzyme activity (96-well, Met-Ala-Ser substrate, L-amino acid oxidase/peroxidase/ortho-dianisidine, 450 nm)). Conditions: IC50, recombinant MetAP2 4 μg/mL, pH 7.4, Met-Ala-Ser substrate, 20 minutes.
T1 construct: made in house; host or cells: insect cells, baculovirus system (secreted, purified from culture supernatant)
T1 sequence (P50579 whole entry): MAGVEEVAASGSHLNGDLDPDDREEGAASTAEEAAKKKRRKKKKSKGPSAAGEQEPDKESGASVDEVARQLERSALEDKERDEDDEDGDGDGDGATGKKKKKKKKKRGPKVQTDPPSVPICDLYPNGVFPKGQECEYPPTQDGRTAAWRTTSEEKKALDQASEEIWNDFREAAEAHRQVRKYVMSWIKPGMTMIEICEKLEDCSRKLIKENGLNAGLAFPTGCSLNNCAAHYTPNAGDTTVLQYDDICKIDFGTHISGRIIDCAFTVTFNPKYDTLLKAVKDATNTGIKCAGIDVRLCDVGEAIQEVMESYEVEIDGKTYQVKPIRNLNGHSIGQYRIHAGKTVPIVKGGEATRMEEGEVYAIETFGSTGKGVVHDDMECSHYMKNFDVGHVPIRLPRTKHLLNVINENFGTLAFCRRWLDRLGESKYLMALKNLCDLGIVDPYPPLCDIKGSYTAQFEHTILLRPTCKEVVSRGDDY
Type: biochemical

SMILES | IC50 [µM]
CCNC(=O)[C@H](C)NC(=O)C(O)[C@H](N)CCSC (stereo partly drawn) [Example 3, (2RS,3R,1'S)-N-((1-Ethylcarboxamido)ethyl)-3-amino-2-hydroxy-5-(methylthio)pentanamide hydrochloride] | 10
CSCC[C@@H](N)C(O)C(=O)NCCc1ccccc1 (stereo partly drawn) [Example 5, (2RS,3R)-N-((2-phenylethyl)-3-amino-2-hydroxy-5-(methylthio)pentanamide hydrochloride] | 2.6
CSCC[C@@H](N)C(O)C(=O)NCCCc1ccccc1 (stereo partly drawn) [Example 6, (2RS,3R)-N-((3-phenylpropyl)-3-amino-2-hydroxy-5-(methylthio)pentanamide hydrochloride] | 3
CSCC[C@@H](N)C(O)C(=O)NCCc1ccc(S(N)(=O)=O)cc1 (stereo partly drawn) [Example 9, (2RS,3R)-N-(2-(4-sulfonamidophenyl)ethyl)-3-amino-2-hydroxy-5-(methylthio)pentanamide hydrochloride] | 2.3
CSCC[C@@H](N)C(O)C(=O)NCCc1ccccn1 (stereo partly drawn) [Example 10, (2RS,3R)-N-(2-(2-pyridyl)ethyl)-3-amino-2-hydroxy-5-(methylthio)pentanamidedihydrochloride] | 3.6
CCSCC[C@@H](N)C(O)C(=O)NCCCCc1ccccc1 (stereo partly drawn) [Example 13, (2RS,3R)-N-(4-phenyl)butyl)-3-amino-2-hydroxy-5-(ethylthio)pentanamide hydrochloride] | 1.1
CCOC(=O)CCNC(=O)C(O)[C@H](N)CCSCC (stereo partly drawn) [Example 14, (2RS,3R)-N-(3-(carboethoxy)ethyl)-3-amino-2-hydroxy-5-(ethylthio)pentanamide hydrochloride] | 0.72
CCSCC[C@@H](N)C(O)C(=O)NCCC(=O)OCc1ccccc1 (stereo partly drawn) [Example 15, (2RS,3R)-N-(3-(carbobenzyloxy)ethyl)-3-amino-2-hydroxy-5-(ethylthio)pentanamide hydrochloride] | 0.72
CCOC(=O)CCNC(=O)C(O)[C@H](N)CC1CCCCC1 (stereo partly drawn) [Example 24, (2RS,3R)-N-(2-(carboethoxy)ethyl)-3-amino-2-hydroxy-4-cyclohexyl-butanamidehydrochloride] | 1
CCOC(=O)[C@H](C)NC(=O)C(O)[C@H](N)Cc1ccccc1 (stereo partly drawn) [Example 26, (2RS,3R,1'S)-N-((1-ethoxycarbonyl)ethyl)-3-amino-2-hydroxy-4-phenyl-butanamide hydrochloride] | 4.7
COc1ccc(CCNC(=O)C(O)[C@H](N)CCSC)cc1 (stereo partly drawn) [Example 27, (2RS,3R)-3-amino-2-hydroxy-N-(4-methoxyphenethyl)-5-(methylthio)pentanamidehydrochloride] | 1.7
N[C@H](CC1CCCCC1)C(O)C(=O)NCCCCc1ccccc1 (stereo partly shown) [Example 30, hydrochloride] | 1.1
CSCC[C@@H](N)C(O)C(=O)N(C)CCc1ccccc1 (stereo partly drawn) [Example 33, (2RS,3R)-3-amino-2-hydroxy-N-methyl-5-(methylthio)-N-phenethylpentanaamide hydrochloride] | 2.5
CCSCC[C@@H](N)C(O)C(=O)N[C@@H](C)C(=O)O (stereo partly shown) [Example 34, hydrochloride] | 3.1
CCOC(=O)C(C)(C)NC(=O)C(O)[C@H](N)CCSCC (stereo partly shown) [Example 35, hydrochloride] | 0.11
CCOC(=O)[C@H](CO)NC(=O)C(O)[C@H](N)CCSCC (stereo partly drawn) [Example 36, (2RS,3R)-N-((1-(2-hydroxy)-1-ethoxycarboxyethyl) 3-amino-2-hydroxy-4-ethylthio)pentanamide hydrochloride] | 0.14
CCOC(=O)CN(C)C(=O)C(O)[C@H](N)CCSCC (stereo partly shown) [Example 39, hydrochloride] | 5.1
CCSCC[C@@H](NC(=O)CO)C(O)C(=O)NCCCCc1ccccc1 (stereo partly shown) [Example 40, hydrochloride] | 81
CCSCC[C@@H](NCC(=O)OC)C(O)C(=O)NCCCCc1ccccc1 (stereo partly drawn) [Example 44, (2RS,3R)-N-((Phenylbutyryl)-3-methoxycarbonylmethylamino-2-hydroxy-4-ethylthio)pentanamide hydrochloride] | 13
CCOC(=O)[C@H](CO)NC(=O)C(O)[C@H](N)CC1CCCCC1 (stereo partly drawn) [Example 46, (2RS,3R,1'S)-N-((2-hydroxy-1-ethoxycarbonylethyl)-3-amino-2-hydroxy-4-cyclohexyl)butanamide hydrochloride] | 1.1
CC(=O)OC[C@H](C)NC(=O)C(O)[C@H](N)CC1CCCCC1 (stereo partly shown) [Example 47] | 1.5

SMILES | IC50 [µM]
CCC(=O)OC[C@H](C)NC(=O)C(O)[C@H](N)CC1CCCCC1 (stereo partly drawn) [Example 48, (2RS,3R,2'S)-N-((2-propionyloxypropyl)-3-amino-b2-hydroxy-$-cyclohexyl)butanamide hydrochloride] | 1.5
C[C@@H](COC(=O)c1ccccc1)NC(=O)C(O)[C@H](N)CC1CCCCC1 (stereo partly drawn) [Example 49, (2RS, 3R,2'S)-N-((2-benzoyloxypropyl)-3-amino-2-hydroxy-4-cyclohexyl)butanamide hydrochloride] | 2.2
C[C@H](COC(=O)c1ccccc1)NC(=O)C(O)[C@H](N)CC1CCCCC1 (stereo partly shown) [Example 50, hydrochloride] | 3.7
CCC(=O)OC[C@@H](C)NC(=O)C(O)[C@H](N)CC1CCCCC1 (stereo partly shown) [Example 51, hydrochloride] | 5
CC(=O)OC[C@@H](C)NC(=O)C(O)[C@H](N)CC1CCCCC1 (stereo partly drawn) [Example 52, (2RS,3R,2'R)-N-((2-acetoxypropyl)-3-amino-2-hydroxy-4-cyclohexyl)butanamidehydrochloride] | 6.1
C[C@H](NC(=O)C(O)[C@H](N)CC1CCCCC1)C(=O)OCc1ccccc1 (stereo partly drawn) [Example 53, (2RS,3R,1'S)-N-((1-benzyloxycarbonylethyl)-3-amino-2hydroxy-$-cyclohexyl)butanamide hydrochloride] | 1.8
CCOC(=O)c1csc([C@H](C)NC(=O)C(O)[C@H](N)CC2CCCCC2)n1 (stereo partly drawn) [Example 54, (2RS,3R,1'-S)-N-(4-ethoxycarbonyl-2-(1'-aminoethyl)thizole)-3-amino-2-hydroxy-4-cyclohexyl)butanamide hydrochloride] | 2.6
CN(C)c1cccc2c(S(=O)(=O)NCCCCCNC(=O)C(O)[C@H](N)CC3CCCCC3)cccc12 (stereo partly drawn) [Example 55, (2RS,3R) N-(monodansylcadaverenyl-3-amino-2-hydroxy-4-cyclohexyl)butanamidedihydrochloride] | 2.7
Cc1ncc([N+](=O)[O-])n1CCNC(=O)C(O)[C@H](N)CC1CCCCC1 (stereo partly drawn) [Example 56, (2RS,3R) N-(2-methyl-5-nitroimidazole-ethyl) 3-amino-2-hydroxy-4-cyclohexyl)butanamide dihydrochloride] | 12
N[C@H](CC1CCCCC1)C(O)C(=O)NCCNc1ccc([N+](=O)[O-])cn1 (stereo partly drawn) [Example 57, (2RS,3R) N-(5-nitropyridyl-2-aminoethyl) 3-amino-2-hydroxy-4-cyclohexyl)butanamide dihydrochloride] | 3.1
COc1ccc2[nH]cc(CCNC(=O)C(O)[C@H](N)CC3CCCCC3)c2c1 (stereo partly shown) [Example 58] | 3.5
COc1cc(CCNC(=O)C(O)[C@H](N)CC2CCCCC2)ccc1O (stereo partly shown) [Example 59] | 1.5
N[C@H](CC1CCCCC1)C(O)C(=O)NCc1nc2ccccc2[nH]1 (stereo partly drawn) [Example 60, (2RS,3R) N-(2-aminomethylbenzimidazolyl) 3-amino-2-hydroxy-4-cyclohexyl)butanamide hydrochloride] | 18
Cc1ncc([N+](=O)[O-])n1CCNC(=O)[C@H](C)NC(=O)C(O)[C@H](N)CC1CCCCC1 (stereo partly drawn) [Example 61, ((2RS,3R)-3-amino-2-hydroxy-4-cyclohexyl)butanoyl-L-alanyl-(2-methyl-5-nitroimidazolyl-ethyl)amide hydrochloride] | 13
C[C@H](NC(=O)C(O)[C@H](N)CC1CCCCC1)C(=O)NCCNc1ccc([N+](=O)[O-])cn1 (stereo partly drawn) [Example 62, ((2RS,3R)-3-amino-2-hydroxy-4-cyclohexyl)butanoyl-L-alanyl-(5-nitropyridylaminoethyl)amide dihydrochloride] | 7.6
CCOC(=O)C1CCN(C(=O)[C@H](C)NC(=O)C(O)[C@H](N)CC2CCCCC2)CC1 (stereo partly drawn) [Example 63, ((2RS,3R)-3-amino-2-hydroxy-4-cyclohexyl)butanoyl-L-alanyl-(ethylisonipecotate)amide hydrochloride] | 20
C[C@H](NC(=O)C(O)[C@H](N)CC1CCCCC1)C(=O)NCCCN1CCCC1=O (stereo partly drawn) [Example 64, ((b 2RS,3R)-3-amino-2-hydroxy-4-cyclohexyl)butanoyl-L-alanyl-(2-pyrrolidinopropyl)amide hydrochloride] | 19
COc1cc(CCNC(=O)[C@H](C)NC(=O)C(O)[C@H](N)CC2CCCCC2)ccc1O (stereo partly drawn) [Example 66, ((2RS,3R)-3-amino-2-hydroxy-4-cyclohexyl)butanoyl-L-alanyl-(3-O-methoxydopamine)amide hydrochloride] | 10
C[C@H](NC(=O)C(O)[C@H](N)CC1CCCCC1)C(=O)NCc1nc2ccccc2[nH]1 (stereo partly drawn) [Example 67, ((2RS,3R)-3-amino-2-hydroxy-4-cyclohexyl)butanoyl-L-alanyl-(2-benzimidazolemethyl)amide hydrochloride] | 13
C[C@H](NC(=O)C(O)[C@H](N)CC1CCCCC1)C(=O)Nc1cc(-c2ccccc2)[nH]n1 (stereo partly drawn) [Example 68, ((2RS,3R)-3-amino-2-hydroxy-4-cyclohexyl)butanoyl-L-alanyl-(5-phenyl-pyrazole-3)amide hydrochloride] | 3.8
C[C@H](NC(=O)C(O)[C@H](N)CC1CCCCC1)C(=O)Nc1cc([N+](=O)[O-])ccc1O (stereo partly drawn) [Example 69, ((2RS,3R)-3-amino-2-hydroxy-4-cyclohexyl)butanoyl-L-alanyl-(2-hydroxy-5-nitrophen-1-yl)amide hydrochloride] | 5.3

Same assay, conditions: recombinant MetAP2 4 μg/mL, pH 7.4, Met-Ala-Ser substrate, 20 minutes

SMILES | IC50 [µM]
COc1ccc2[nH]cc(CCNC(=O)[C@H](C)NC(=O)C(O)[C@H](N)CC3CCCCC3)c2c1 (stereo partly drawn) [Example 65, ((2RS,3R)-3-amiono-2-hydroxy-4-cyclohexyl)butanoyl-L-alanyl-(5-methoxytryptamine)amide hydrochloride] | 5.6

Reference: patent publication US6242494A, “Substituted β-amino acid inhibitors of methionine aminopeptidase-2” (Abbott Laboratories, priority 1999, dated 2001)
